# Source: patent publication US20030229044A1, “Use of statins and other immunomodulatory agents in the treatment of autoimmune disease” (priority 2002, published 2003)
# “Also recorded” adds a separate entry of the source.
# Key:
# EAE in Lewis rats = assay: MBPp85-99-induced EAE in Lewis rats, ordered peptides; type: in vivo, rat; conditions: single intraperitoneal dose of 0.5 mg peptide on day of mean disease onset
# Description: FIG. 8 is a graph depicting the prevention of EAE in rats treated with ordered peptides. […] Animals were injected with an emulsion of 0.1 mg of MBPp85-99 in complete Freund's adjuvant for EAE induction. Ten days later, when the clinical manifestations of disease became apparent, a single intra peritoneal dose of peptide {SEQ ID NO:4} […] (squares), {SEQ ID NO:5} […] (triangles), or PBS (circles) was administered. Results are expressed as mean disease score of groups of six animals.
# Animals. Female Lewis rats (6-8 weeks old), were purchased from Harlan Sprague Dawley (Indianapolis, Ind.)
# Peptides. For immunization and disease reversal, peptides were synthesized on a peptide synthesizer (model 9050: MilliGen, Burlington, Mass.) by standard 9-fuorenylmethoxycarbonyl chemistry. Peptides were purified by HPLC. Structure was confirmed by amino acid analysis and mass spectroscopy. Peptides used for the experiments were: {SEQ ID NO:11} […] (MBPp85 99), {SEQ ID NO:4} […], {SEQ ID NO:5} […].
# EAE induction. […] Rats were injected subcutaneously with 0.1 mi of the peptide emulsion.
# EAE treatment. Rats previously immunized with MBPp85-99 for EAE induction were scored from day eight after peptide injection. On the day of mean disease onset, animals were injected intraperitoneally with a solution of 0.5 mg of peptide in PBS (one dose of 0.25 ml).
# [1] = tested on: MHC II expression (CIITA p IV gene); conditions: through the effect on the CIITA p IV gene; cited from earlier work
# [2] = tested on: lymph node cells and spleen cells from EAE donors; assay: Cytokine profile determination by ELISA; type: cell-based, mouse
# Description: Cytokine Profile Determination. Lymph node cells and spleen cells from EAE donors were stimulated in vitro (2.5×10^6 cells/ml) in 24-well plates with or without the encephalogenic peptide or with […] as positive control. Cell culture supernatants were collected at different time points for measurements of cytokine levels: 48 hours for IL-2, 72 hours for IFN-γ and TNF α, and 120 hours for IL-4 and IL-10. Cytokine levels were determined using specific ELISA kits for the corresponding cytokines according to the manufacturers protocols (PharMingen, San Diego, Calif., USA).
# STAT6 = assay: Western blot for STAT6 phosphorylation in draining lymph node cells; type: in vivo, mouse; conditions: lymph nodes of SJL/J mice, 1 mg/kg and 10 mg/kg, 10 days after EAE induction; PBS: none detectable
# Description: All procedures were handled on ice. As a positive control, lymph node cells from naive mice were isolated and cultured for one hour with mouse recombinant IL-4 (10 ng/ml) or INF-γ (100 units/ml), for STAT6 and STAT4 expression respectively. Protein concentrations were determined by BCA protein assay (Pierce). Lysate was added to 3×SDS loading buffer (Cell Signaling Technology) with 40 mM DTT. Products were separated by electrophoresis on a 4-15% SDS-PAGE gradient gel (BioRad). Pre-stained markers (Invitrogen) were used to determine MW. Gels were blotted to PVDF membranes at 100 V in 25 mM Tris, 192 mM glycine and 20% (v/v) methanol, then blocked 1 hr at RT with Tris-buffered saline (TBS) containing 0.1% Tween-20 and 5% nonfat dry milk. After washing in TBS and 0.1% Tween 20, membranes were hybridized overnight at 4° C. with anti-phospho-STAT6 Antibody or anti-phospho-STAT4 antibody (Zymed, South San Francisco, Calif.) diluted 1:1000 in TBS, 0.1% Tween 20 and 5% BSA, the membranes were then processed by ECL Plus prebetween protocol (Amersham Life Sciences) for visualization of the bands by chemiluminescence. […]
# [3] = tested on: PLP p139-151-stimulated spleen and lymph node cells; assay: Ag specific ex-vivo T cell proliferation assay; type: cell-based, mouse
# Source text: Ag specific ex-vivo T cell proliferation assay.
# [4] = tested on: MBP Ac1-11-induced EAE in MBP Ac1-11 TCR Tg mice; assay: MBP Ac1-11-induced acute EAE in MBP Ac1-11 Tg mice; type: in vivo, mouse
# Source text: (§1) Animals. Female SJL/J, B10.PL and C57BL/6 mice (8 to 12-week-old) were purchased from the Jackson Laboratory (Bar Harbor, Me.). MBP Ac 1-11 transgenic (tg) TCR mice were backcrossed with B10.PL mice to obtain susceptibility to EAE. All animal protocols were approved by the Division of comparative Medicine at Stanford and in accordance with the National Institutes of Health guidelines.
# (§2) Peptides. Peptides were synthesized on a peptide synthesizer (model 9050; MilliGen, Burlington, Mass.) by standard 9-fluorenylmethoxycarbonyl chemistry. Peptides were purified by HPLC. Structures were confirmed by amino acid analysis and mass spectroscopy.
# EAE Induction. […] All peptides were dissolved in PBS at a concentration of 2 mg/ml and emulsified with an equal volume of CFA, which consists of incomplete Freund's adjuvant supplemented with 4 mg/ml heat-killed mycobacterium tuberculosis H37Ra (Difco Laboratories, Detroit, Mich.). Mice were injected subcutaneously with 0.1 ml of the peptide emulsion. […] Mice were clinically scored as follows: 0, no paralysis; 1, tail weakness or paralysis; 2, hindlimb weakness or paralysis; 3, hindlimb paralysis and forelimb weakness; 4, hindlimb and forelimb paralysis; and 5, moribund or death. […]
# [5] = tested on: MOG p35-55-induced EAE in C57BL/6 mice; assay: MOG p35-55-induced chronic EAE in C57BL/6 mice; type: in vivo, mouse
# Source text: as §1, §2
# (§3) EAE Induction. Relapsing remitting EAE was induced in SJL/J mice with 100 μg of PLP139-151 peptide, chronic progressive EAE was induced either in C57BL/6 or MBP Ac1-11 TCR Tg mice with 100 μg of MOG35-55 peptide or 100 μg of MBP Ac1-11 peptide, respectively. All peptides were dissolved in PBS at a concentration of 2 mg/ml and emulsified with an equal volume of CFA, which consists of incomplete Freund's adjuvant supplemented with 4 mg/ml heat-killed mycobacterium tuberculosis H37Ra (Difco Laboratories, Detroit, Mich.). […] Mice were clinically scored as follows: 0, no paralysis; 1, tail weakness or paralysis; 2, hindlimb weakness or paralysis; 3, hindlimb paralysis and forelimb weakness; 4, hindlimb and forelimb paralysis; and 5, moribund or death. […]
# [6] = tested on: PLP p139-151-induced EAE in SJL/J mice; assay: PLP p139-151-induced chronic relapsing EAE in SJL/J mice; type: in vivo, mouse
# Source text: as §1, §2, §3
# NOD mice = conditions: as proteins, under tolerizing conditions; cited from earlier work
# microglia and astrocytes = conditions: cited from earlier work
# [7] = ELISA, SJL/J mice, 1 and 10 mg/kg
compound,measurement,setting,value
EYYKEYYKEYYK [ordered peptide with repeated motif EYYK],EAE in Lewis rats (mean disease score),EAE in Lewis rats,effective in preventing and treating experimental autoimmune encephalomyelitis; also recorded: effectively prevent and treat EAE in Lewis rats; also recorded: prevents the development of EAE
CC(C)c1c(C(=O)Nc2ccccc2)c(-c2ccccc2)c(-c2ccc(F)cc2)n1CC[C@@H](O)C[C@@H](O)CC(=O)O [atorvastatin],expression of MHC II,[1],could inhibit the expression of MHC II
same,secretion of IL-10,"[2]; ELISA, SJL/J mice",observed at the higher treatment dose
same,IL-4 production,[2]; [7],induced at both treatment doses
same,Production of IL-2,[2]; [7],"reduced, although to a much greater extent in mice treated with 10 mg/kg"
same,secretion of IFN-γ,"[2]; ELISA, SJL/J mice, both treatment doses",dramatic reduction
same,Th2 bias (proliferation and cytokines),[2]; repeated in C57BL/6 and MBP Ac1-11-specific transgenic mice,promoted an almost identical Th2 bias
same,phosphorylated STAT6,STAT6,phosphorylated STAT6 is seen
same,PLP p139-151-specific proliferative responses,"[3]; 3H-thymidine incorporation, SJL/J mice treated with 1 or 10 mg/kg",suppressed in a dose-related fashion
same,cell death,[3]; in vitro cultures of cells from treated mice,not observed increased cell death
same,acute EAE progression,[4],successfully prevented acute EAE progression
same,EAE (mean EAE score),"[5]; daily oral 1 mg/kg or 10 mg/kg starting at the time of EAE onset, C57Bl/6 female mice",suppressed EAE induction
same,EAE (mean EAE score),"[5]; treatment after onset, C57Bl/6 mice",ameliorated EAE
same,relapsing EAE (mean EAE score),[6]; treatment at onset,effective in prevention of relapsing EAE
same,ongoing relapsing EAE (mean EAE score),[6]; treatment begun after recovery from acute EAE,reversal of ongoing relapsing EAE
insulin,diabetes in NOD mice,NOD mice,prevents disease
CC[C@H](C)C(=O)O[C@H]1C[C@@H](C)C=C2C=C[C@H](C)[C@H](CC[C@@H]3C[C@@H](O)CC(=O)O3)[C@H]21 [lovastatin],production of iNOS and proinflammatory cytokines,microglia and astrocytes,"inhibited production of nitric oxide synthase (iNOS) and proinflammatory cytokines (TNFα, IL-1β and IL-6)"
